Entries after “also recorded” stand apart in the source; their conditions may differ.
How the values were obtained:
[1] = system: SGC-7901 (human gastric cancer cell line); assay: MTT in vitro cytotoxicity assay, SGC-7901; type: cell-based; conditions: for IC50: mean ± S.D.; for inhibition at 100 µM: SGC-7901, at 100 µM, read-out: Cell growth inhibition (%) SGC-7901
Description: (§1) The lead molecules A2 and all newly prepared diarylamine derivatives B1-13 and C1-11 were evaluated for their in vitro cytotoxic effects against SGC-7901, A875, HepG2 and MARC145 cell lines by the classical MTT [3-(4,5-dimethylthiazol-2-yl)-2,5-diphenyl tetrazolium bromide] assay ([Alley et al., 1988]; [Ke et al., 2012]; [Shi et al., 2012]; [Yu et al., 2015]; [Ke et al., 2019]; [Xu et al., 2019]; [Huang et al., 2021]) using 5-FU (5-Fluorouracil) as a control.
(§2) The cytotoxicity of target compounds was determined with MTT assay ([Alley et al., 1988]; [Ke et al., 2012]; [Shi et al., 2012]; [Yu et al., 2015]; [Ke et al., 2019]; [Xu et al., 2019]; [Huang et al., 2021]). SGC-7901, A875, HepG2 and MARC145 cell lines were obtained from Hubei Biopesticide Engineering Research Centre. All data of the experiment were analyzed with SPSS software, and all assay were performed in triplicate on three independent experiments, and measurement data were expressed as the mean ± S.D.
(§3) The in vitro cytotoxicity of the synthesized compounds against different cell lines (SGC-7901, A875, HepG2 and MARC145) was measured with MTT assay. All the data of the experiment were analyzed with SPSS software, and the 50% inhibitory concentrations (IC50) of each compound for the different cell lines were determined. A control was run for each test, and all assays were performed in triplicate on three independent experiments, and measurement data were expressed as the mean ± S.D.

[2] = system: A875 (human melanoma cell line); assay: MTT in vitro cytotoxicity assay, A875; type: cell-based; conditions: for IC50: mean ± S.D.; for inhibition at 100 µM: A875, at 100 µM, read-out: Cell growth inhibition (%) A875
Description: as §1, §2, §3

[3] = system: HepG2 (human hepatocellular liver carcinoma cell line); assay: MTT in vitro cytotoxicity assay, HepG2; type: cell-based; conditions: for IC50: mean ± S.D.; for inhibition at 100 µM: HepG2, at 100 µM, read-out: Cell growth inhibition (%) HepG2
Description: as §1, §2, §3

[4] = MTT in vitro cytotoxicity assay, MARC145; type: cell-based, African green monkey; conditions: African green monkey, MARC145 cells (kidney cell line, subclone of MA-104), MTT, mean ± S.D.
Description: as §1, §2, §3

[5] = system: MARC145 (subclone of African green monkey kidney cell line MA-104); assay: MTT in vitro cytotoxicity assay, MARC145; type: cell-based; conditions: Chlorocebus sabaeus, MARC145; at 100 µM; read-out: Cell growth inhibition (%) MARC145
Description: as §1, §2, §3

[6] = system: SGC-7901, A875, HepG2 and MARC145 cell lines; assay: MTT in vitro cytotoxicity assay, statements over the whole cell panel; type: cell-based; conditions: for cytotoxic effect / inhibition activity in words: IC50-based judgement, compared with 5-FU; for inhibition activity in preliminary screening, in words: at 100 µM, inhibition rate higher than control 5-FU
Description: as §1, §2, §3

A875 cells = assay: LDH release (cellular necrosis); type: cell-based, human; conditions: 24 h after treatment
Description: From the preliminary analysis of apoptosis, the results encourage us to further investigate the type of cell death induced by the potential compounds (C6 and C11). As we know, the release of LDH is a typical characteristic feature of necrotic cell death, and so which was detected.
A875 cells grown in 96-well plates were treated with serial dilutions of each tested compound for 24 h. The culture media were collected, and the concentrations of LDH were determined based on our previous research ([Huang et al., 2021]).
A875 cells grown in 96-well plates were treated with serial dilutions of each tested compound for 24 h. The culture media were collected, and the concentrations of LDH were determined with an LDH assay kit according to the manufacturer’s instructions (Abcam).

NCI-H460 = system: NCI-H460; parameters: method as in Peng et al., 2017; conditions: ref Peng et al., 2017; cited from earlier work
A549 = system: A549; parameters: method as in Peng et al., 2017; conditions: ref Peng et al., 2017; cited from earlier work
NCI-H1975 = system: NCI-H1975; parameters: method as in Peng et al., 2017; conditions: ref Peng et al., 2017; cited from earlier work
HL-7702 = system: HL-7702; parameters: method as in Peng et al., 2017; conditions: ref Peng et al., 2017; cited from earlier work
MDCK = system: MDCK; parameters: method as in Peng et al., 2017; conditions: ref Peng et al., 2017; cited from earlier work
[7] = system: lung cancer cell lines (NCI-H460, A549, and NCI-H1975); parameters: method as in Peng et al., 2017; conditions: ref Peng et al., 2017, read-out: IC50 values against the tested lung cancer cell lines; cited from earlier work

Row | Structure (SMILES) | IC50 ([1]; SGC-7901, Table 1, MTT) | IC50 ([1]; SGC-7901, Table 3, MTT) | inhibition at 100 µM [1] | IC50 ([2]; A875, Table 1, MTT) | IC50 ([2]; A875, Table 3, MTT) | inhibition at 100 µM [2] | IC50 ([3]; HepG2, Table 1, MTT) | IC50 ([3]; HepG2, Table 3, MTT) | inhibition at 100 µM [3] | IC50 ([4]; Table 1) | IC50 ([4]; Table 3) | inhibition at 100 µM [5] | dose-response analysis of cell growth inhibition, in words ([6]; SGC-7901, A875, HepG2, MARC145) | IC50 (NCI-H460) | IC50 (A549) | IC50 (NCI-H1975) | IC50 (HL-7702) | IC50 (MDCK) | cytotoxic effect / inhibition activity in words [6] | inhibition activity in preliminary screening, in words [6] | other results
1 | O=c1[nH]cc(F)c(=O)[nH]1 [5-FU, 5-Fluorouracil, reference compound] | 71.1 ± 2.65 µM | 87.7 ± 11 µM | 56.8 ± 2.2% | 82.4 ± 23.7 µM | 101 ± 7.14 µM | 53.2 ± 4.5% | 88.1 ± 17.2 µM | 91.8 ± 16.1 µM | 59 ± 3.5% | 153 ± 11 µM | 99 ± 16.4 µM | 60.3 ± 3.9% | significant concentration dependence | – | – | – | – | – | – | – | release of LDH, in words (A875 cells): significantly increased
2 | Cc1cc(Cl)cc(C(N)=O)c1NC(=O)c1ccccc1Nc1cccc(C(F)(F)F)c1 [A1] | 52.8 ± 6.59 µM | – | – | 56.9 ± 7.54 µM | – | – | > 89 µM | – | – | > 89 µM | – | – | – | > 80 µM | > 80 µM | > 80 µM | > 80 µM | > 80 µM | – | – | IC50 [7]: > 80 µM
3 | CNC(=O)c1cc(Cl)cc(C)c1NC(=O)c1ccccc1Nc1cccc(C(F)(F)F)c1 [A2] | 8.5 ± 2.26 µM | – | – | 7.59 ± 1.82 µM | – | – | 12.4 ± 0.39 µM | – | – | 8.13 ± 2.49 µM | – | – | – | 14.8 ± 0.49 µM | 14.7 ± 1.86 µM | 23.4 ± 2.21 µM | 46.4 ± 3.87 µM | 46 ± 7.77 µM | – | – | IC50 ([6]; SGC-7901, A875, HepG2, MARC145, read-out: IC50 values, span over the tested cell lines): 7.59 to 12.4 µM
4 | O=C(Nc1ccc(C(F)(F)F)cc1)c1ccccc1Nc1cccc(C(F)(F)F)c1 [C7, N-(4-(Trifluoromethyl)phenyl)-2-((3-(trifluoromethyl)phenyl)amino)benzamide] | – | 8.91 ± 2.15 µM | 87 ± 2.4% | – | 13 ± 3.39 µM | 92.6 ± 4.9% | – | 10.4 ± 2.17 µM | 88.5 ± 3.3% | – | 11.9 ± 1.37 µM | 76.1 ± 3.5% | significant concentration dependence | – | – | – | – | – | good cytotoxic effect; also recorded: higher inhibition activities compared to the control 5-FU | good inhibition activity | melting point: 102 to 103 °C
5 | O=C(Nc1ccnc(Cl)c1)c1ccccc1Nc1cccc(C(F)(F)F)c1 [C10, N-(2-Chloropyridin-4-yl)-2-((3-(trifluoromethyl)phenyl)amino)benzamide] | – | 8.31 ± 2.94 µM | 86.8 ± 3.2% | – | 26.3 ± 7.39 µM | 90.1 ± 5.4% | – | 21.9 ± 1.64 µM | 87.2 ± 4.1% | – | 22.7 ± 5.93 µM | 80.3 ± 4.6% | – | – | – | – | – | – | higher inhibition activities compared to the control 5-FU | good inhibition activity | melting point: 97 to 98 °C
